Results from the OligoGym collection.
Several values for one entry are separate records, joined by “and”; a condition that tells them apart may be missing. Equal values may be shown once. After the bases stand the sugars from the 5' end (letter, count) and the backbone: PS all phosphorothioate, else s phosphorothioate and o phosphodiester by linkage. Methylation of C is not given here. e = 2'-O-(2-methoxyethyl) (MOE); k = constrained ethyl (cEt); d = 2'-deoxy (DNA)

Molecular target: IRF4
Conditions: ASO

Row | Sequence | target mRNA inhibition (MM.1R, 1 µM) | target mRNA inhibition (SK-MEL-28, 4 µM) | further results
1 | ATGTGATAGCTGAGCT (sugars kkdddddddddkdkdk, PS) | 27% | – | –
2 | ATGTGGAGCTCCTCCT (sugars k3 d10 k3, PS) | – | 20% | –
3 | ATGTGTATTACTCTTA (sugars k2 d9 e3 k2, PS) | 40% and 44% | – | –
4 | ATGTGTATTACTCTTA (sugars kkdddddddddekeke, PS) | 60% and 61% | – | –
5 | ATGTTAGCCAATTCCT (sugars kddddddddddkekek, PS) | 0% and 7% | – | –
6 | ATTAAAGAGCGCATTT (sugars k3 d10 k3, PS) | – | 13% | –
7 | ATTACTCTTAGGCACA (sugars k3 d10 k3, PS) | 30% | – | –
8 | ATTATATACTGGTTGG (sugars k3 d10 k3, PS) | 39% and 57% | – | target mRNA inhibition (MM.1R, 0.0625 µM): 3% and 9%; target mRNA inhibition (MM.1R, 0.25 µM): 15% and 25%; target mRNA inhibition (MM.1R, 4 µM): 77% and 74%
9 | ATTATATACTGGTTGG (sugars kddddddddddkekek, PS) | 22% | – | –
10 | ATTATATACTGGTTGG (sugars kkddddddddddkeke, PS) | 32% | – | –
11 | ATTATATACTGGTTGG (sugars kkdddddddddkekek, PS) | 52% | – | –
12 | ATTCAATGCACCCCCC (sugars k3 d10 k3, PS) | 2% | – | –
13 | ATTCACACTGCCGTGA (sugars k3 d10 k3, PS) | – | 34% | –
14 | ATTCAGGAGAGCCCCT (sugars k3 d10 k3, PS) | -15% | – | –
15 | ATTCATGATGTATACC (sugars k3 d10 k3, PS) | – | 62% | –
16 | ATTGCCTGTTAAGTCC (sugars k3 d10 k3, PS) | – | 73% | –
17 | ATTTACAGCATCTAAG (sugars k3 d10 k3, PS) | – | 47% | –
18 | ATTTCATAGCTAGTTC (sugars k3 d10 k3, PS) | – | 44% | –
19 | ATTTCCGGGTGTGGCT (sugars k3 d10 k3, PS) | 7% | – | –
20 | CAAAACCAGTACAGTC (sugars k3 d10 k3, PS) | – | 49% | –
21 | CAAAATAGTCACTCAC (sugars k3 d10 k3, PS) | – | -3% | –

Row | Sequence | target mRNA inhibition (MM.1R, 1 µM) | target mRNA inhibition (SK-MEL-28, 4 µM) | further results
22 | CAAACCCTACTGGGTA (sugars k3 d10 k3, PS) | – | 32% | –
23 | CAAACTCCTCAGGGAA (sugars k3 d10 k3, PS) | – | 23% | –
24 | CAAAGCATAGAGTCAC (sugars k3 d10 k3, PS) | – | 36% | –
25 | CAACAGGCGGACACGC (sugars k3 d10 k3, PS) | – | 42% | –
26 | CAACCATTTTCACAAG (sugars k4 d8 k4, PS) | – | 5% | –
27 | CAAGAAGGATGGGACC (sugars k3 d10 k3, PS) | – | 25% | –
28 | CAAGCAGTGATGTCAG (sugars k2 d9 e3 k2, PS) | 15% and 8% | – | –
29 | CAAGCAGTGATGTCAG (sugars kdddddddddkekeke, PS) | 10% and 12% | – | –
30 | CAAGCTGGGCCTTGCC (sugars k3 d10 k3, PS) | – | 34% | –
31 | CAAGGAGATCCACCTG (sugars k3 d10 k3, PS) | – | -21% | –
32 | CAAGTGTCTAAAGTCC (sugars kkddddddddddkeke, PS) | 16% and 17% | – | –
33 | CAATGAACGGAAGTTT (sugars k3 d10 k3, PS) | – | 33% | –
34 | CAATTTATGCCATGGA (sugars k3 d10 k3, PS) | – | 62% | target mRNA inhibition (MM.1R, 0.074 µM): -4%; target mRNA inhibition (MM.1R, 0.222 µM): 5%; target mRNA inhibition (MM.1R, 0.666 µM): 9%; target mRNA inhibition (MM.1R, 2 µM): 40%
35 | CACAGAGGACTTCGGG (sugars k3 d10 k3, PS) | – | 49% | –
36 | CACATAATCCAGTATC (sugars k3 d10 k3, PS) | – | 43% | –
37 | CACATCAATGTTTTAG (sugars kkddddddddddkeke, PS) | 25% and 39% | – | –
38 | CACATCAATGTTTTAG (sugars kkdddddddddekeke, PS) | 28% and 27% | – | –
39 | CACATGATAAGGCACT (sugars k3 d10 k3, PS) | 21% | – | –
40 | CACCAATGGCAGCACC (sugars k3 d10 k3, PS) | 16% | – | –
41 | CACCAGCCATCGGCAG (sugars k3 d10 k3, PS) | -19% | – | –
